Values of other authors in patent publication US20230066502A1, “PREDICTION METHOD FOR INDICATION OF AIMED DRUG OR EQUIVALENT SUBSTANCE OF DRUG, PREDICTION APPARATUS, AND PREDICTION PROGRAM” (KARYDO THERAPEUTIX, INC., priority 2020, published 2023).

Details: for occurrence frequency of adverse event Blood glucose decreased / occurrence frequency of adverse event Sleep disorder: FIG. 3 example of training data, already reported adverse event-related information, cases of this adverse event / total adverse event cases for the drug; for occurrence frequency of adverse event Low blood sugar / occurrence frequency of adverse event sleepiness: FIG. 7 example of second training data calculated from FAERS adverse event data, maximum value 1

OC[C@H]1O[C@@H](c2ccc(Cl)c(Cc3ccc(O[C@H]4CCOC4)cc3)c2)[C@H](O)[C@@H](O)[C@@H]1O [EMPA, empagliflozin]
occurrence frequency of adverse event Blood glucose decreased: 0.141 | occurrence frequency of adverse event Sleep disorder: 0.007 | occurrence frequency of adverse event Low blood sugar: 0.12 | occurrence frequency of adverse event sleepiness: 0.01

O=C1CCc2ccc(OCCCCN3CCN(c4cccc(Cl)c4Cl)CC3)cc2N1 [aripiprazole]
occurrence frequency of adverse event Blood glucose decreased: 0.009 | occurrence frequency of adverse event Sleep disorder: 0.026 | occurrence frequency of adverse event Low blood sugar: 0.0 | occurrence frequency of adverse event sleepiness: 0.5
